For one data set, the system named is Würgereiz. As to the kind of experiment: Gag reflex inhibition after gag stimulus, clinical study. The data set is classed as in vivo, männlichen und weiblichen gesunden Probanden. As to conditions: oral 100 mg as Vagantin® film tablet or fresh solution; tested immediately after application and 1, 2 and 6 hours later (Figur 2). The procedure: (§1) In einer klinischen Studie an 10 männlichen und weiblichen gesunden Probanden im Alter zwischen 20 und 60 Jahren wurde die Ausschaltung bzw. Verzögerung des Würgereizes und der Verminderung des Speichelflusses bei ärztlichen oder zahnärztlichen Manipulationen im Rachenraum geprüft.
(§2) Die obengenannte Filmtablettenformulierung bzw. die dort genannte Lösung von 100 mg Methantheliniumbromid in Wasser als Frischlösung wurde auch hier verwendet.
(§3) Nach Würgereizstimulus wurde die Würgereflexhemmung unmittelbar nach Applikation, sowie im Abstand von 1, 2 und 6 Stunden danach geprüft. Gleichzeitig wurde die Speichelflußrate vor und nach Einnahme von Methantheliniumbromid in Form von Vagantin® gemessen. […] Die Ergebnisse sind in den Figuren. 2 und 3 dargestellt.

The subject of a further data set is Speichelfluß. The experiment in a line: Saliva flow rate before and after intake, clinical study. As to conditions: oral 100 mg as Vagantin®; before and after intake (Figur 3). The data set is classed as in vivo, männlichen und weiblichen gesunden Probanden. As for the experimental part:
as §1, §2, §3
Figur 3 zeigt die Speichelsekretion in Abhängigkeit von der Methanthelinkonzentration im Plasma nach oraler Gabe von 100 mg Wirkstoff an gesunde Freiwillige. Ferner kann von einem Methanthelinbromidgehalt im Plasma von etwa 5 ng/ml über einen Zweitraum von 8 Stunden ausgegangen werden (Figur 1).

Data set [1] can be described thus: Serum/plasma concentration-time profile after oral dosing in volunteers. The data set is classed as in vivo, männliche und weiblichen Probanden. The procedure:
Die Studie wurde an 12 männliche und weiblichen Probanden im Alter zwischen 18 und 45 Jahren durchgeführt. Der Wirkstoff (Methantheliniumbromid) wurden oral als Filmtablette oder als Lösung appliziert. Zu unterschiedlichen Zeiten nach der Dosierung wurden Messungen vorgenommen und Laborwerte zur Charakterisierung der Wirkung festgestellt.
Im Beispiel wurden 100 mg Wirkstoff als Filmtablette der folgenden Formulierung eingesetzt: • ◆ 50,0 mg Methantheliniumbromid • ◆ 30,0 mg Maisstärke • ◆ 18,75 mg Polyvinylprrolidon • ◆ 4,0 mg hochdisperses Siliziumdioxid • ◆ 146,25 mg Lactosemonohydrat • ◆ 1,0 mg Magnesiumsterarat • ◆ 1,0 mg Hydroxypropylmethylcellulose • ◆ 39,38 mg Talcum • ◆ 6,5 mg Gummi arabicum • ◆ 15,53 mg Calciumcarbonat • ◆ 7,73 mg Titandioxid • ◆ 6,58 mg Weißer Ton • ◆ 0,65 mg Macogol 6000 • ◆ 61,63 mg Saccharose • ◆ 1,0 mg E 100 • ◆ 0,1 mg Carnauba Wachs
Es ist auch möglich, eine reine Lösung von 100 mg Methantheliniumbromid in Wasser als Frischlösung herzustellen. Dabei empfiehlt es sich, den bitteren Geschmack des Wirkstoffes durch angenehme Geschmackskorrigentien zu überdecken. Hier bieten sich z. B. einige Spritzer eines Mundwassers mit Pfefferminzgeschmack an.
Ausdruck dafür ist das in der Figur 1 dargestellte Konzentrations-Zeit-Profil. Zu beachten ist eine deutliche individuelle Schwankungsbreite in der Serumkonzentration nach Zuführung beider Applikationsformen. […]

With `CC[N+](C)(CC)CCOC(=O)C1c2ccccc2Oc2ccccc21.[Br-]` [Methantheliniumbromid, N,N-Diethyl-N-methyl-2-(xanthenylcarbonyloxy)ethylammoniumbromid], in the data set with Würgereiz, the Würgereflexhemmung entry was “deutliche Verzögerung des Würgereizesreflexes”. In addition, in the data set with Speichelfluß, the Speichelflußrate result is given as “deutliche Reduzierung des Speichelflusses”. Moreover, the concentration at 8 h in data set [1] (human, plasma, oral, 100 mg, over a period of 8 hours (Figur 1), read-out: Methanthelinbromidgehalt im Plasma) was roughly 5 ng/mL. The “Reaktion (Konzentrations-Zeit-Profil, Serumkonzentration)” value in data set [1] (oral drinking solution compared with film tablet, 100 mg (Figur 1)) was “etwas stärkere Reaktion als die Filmtablette”.

For the origin of these results see patent publication EP1637537A1, “New medicaments” (Riemser Arzneimittel AG, priority 2004, dated 2006).
